Assay results as given in patent publication US7691907B2, “Methods and composition based on discovery of metabolism of nitroglycerin” (priority 2002, dated 2010).
Entries after “also recorded” stand apart in the source; their conditions may differ. Read-outs that look alike come from different tables or passages of the source.

How the values were obtained:
[1] = test system: mitochondria isolated from RAW 264.7 cells; assay: 1,2-GDN generation from GTN by mitochondria isolated from RAW 264.7 cells; type: biochemical, mouse
Procedure: During protein purification, the assay mixtures (1 ml samples) contained 100 mM KPi, pH7.5, 0.5 mM EDTA, 1 mM NADH, 1 mM NADPH, 0.1 or 1 μM [^14C]GTN and protein sample from column fractions. After incubation at 37° C. for 10 to 30 minutes, the reaction was stopped (by adding dry ice) and GTN and its metabolites were extracted by 3×4 ml ether, the ether phase was combined and the solvent was evaporated by a stream of nitrogen. The final volume was controlled to less than 100 μl in ethanol for subsequent thin layer chromatography (TLC) separation and liquid scintillation spectrometry counting, i.e., (TLC-LSS), to determine amount of [^14C]1,2-GDN, to select samples with enzymatic activity (i.e., 1,2-GDN producing activity).
At the end of the procedure, the protein had been purified to near homogeneity (90 fold), with a 14.4% overall yield; its estimated molecular weight on SDS gel is about 53 kDa. N-terminal sequence of 30 amino acid residues was obtained by Edman degradation and matched exactly with mouse mitochondria aldehyde dehydrogenase.

[2] = test system: rabbit thoracic aorta rings; assay: tissue or blood; type: cell-based, New Zealand white rabbits; conditions: for EC50: Oryctolagus cuniculus, read-out: EC50 for GTN relaxation
[3] = test system: organic nitrate ester reductase activity (mtALDH) in aorta rings; assay: 1,2-GDN formation from GTN in aorta rings; type: cell-based, New Zealand white rabbits; conditions: for activity at 1000 µM: Oryctolagus cuniculus, read-out: 1,2-GDN generation in the aorta rings, % of control activity
mtALDH = biological target: T1, mtALDH (Oryctolagus cuniculus, UniProt G1SUY2); assay: mtALDH activity in partially purified preparations of GTN tolerant aortic rings; type: biochemical, rabbit
T1 construct: from tissue; host or cells: thoracic aorta rings of New Zealand white rabbits, made GTN tolerant; partially purified preparation
T1 sequence (G1SUY2 1-521): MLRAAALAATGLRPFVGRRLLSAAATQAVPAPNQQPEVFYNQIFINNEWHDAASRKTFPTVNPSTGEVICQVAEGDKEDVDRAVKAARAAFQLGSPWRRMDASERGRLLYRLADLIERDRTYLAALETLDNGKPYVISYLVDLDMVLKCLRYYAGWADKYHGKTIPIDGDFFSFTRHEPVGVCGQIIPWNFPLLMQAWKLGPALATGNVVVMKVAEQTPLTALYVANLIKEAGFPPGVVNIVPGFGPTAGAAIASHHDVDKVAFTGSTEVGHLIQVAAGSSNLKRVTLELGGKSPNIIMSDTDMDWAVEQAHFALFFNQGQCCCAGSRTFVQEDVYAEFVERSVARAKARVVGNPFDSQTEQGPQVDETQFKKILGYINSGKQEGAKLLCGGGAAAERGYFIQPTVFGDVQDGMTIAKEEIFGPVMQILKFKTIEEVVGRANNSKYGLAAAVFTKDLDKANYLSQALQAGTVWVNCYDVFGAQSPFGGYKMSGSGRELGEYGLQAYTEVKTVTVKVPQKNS

[4] = test system: cGMP accumulation in the aortic rings; assay: cGMP accumulation in aortic rings; type: cell-based, New Zealand white rabbits; conditions: for effect on increase in cGMP produced by GTN: 1 μM for 1 minute
[5] = cited from earlier work
[6] = biological target: T2, mouse mitochondria aldehyde dehydrogenase (mtALDH) purified from RAW264.7 cells (Mus musculus, UniProt P47738); assay: GTN reductase activity of purified enzyme (1,2-GDN formation from [14C]GTN, TLC-LSS); type: biochemical; conditions: for restoration of catalytic activity lost upon removal of DTT by dialysis: purified enzyme after dialysis
T2 construct: Mouse macrophage RAW 264.7 cells were homogenized in a 30 mM phosphate buffer; endogenous in cells; host or cells: mouse macrophage RAW 264.7 cells (endogenous enzyme purified over DEAE-cellulose, Q-sepharose, Butyl-Sepharose and hydroxyapatite)
T2 sequence (P47738 20-519): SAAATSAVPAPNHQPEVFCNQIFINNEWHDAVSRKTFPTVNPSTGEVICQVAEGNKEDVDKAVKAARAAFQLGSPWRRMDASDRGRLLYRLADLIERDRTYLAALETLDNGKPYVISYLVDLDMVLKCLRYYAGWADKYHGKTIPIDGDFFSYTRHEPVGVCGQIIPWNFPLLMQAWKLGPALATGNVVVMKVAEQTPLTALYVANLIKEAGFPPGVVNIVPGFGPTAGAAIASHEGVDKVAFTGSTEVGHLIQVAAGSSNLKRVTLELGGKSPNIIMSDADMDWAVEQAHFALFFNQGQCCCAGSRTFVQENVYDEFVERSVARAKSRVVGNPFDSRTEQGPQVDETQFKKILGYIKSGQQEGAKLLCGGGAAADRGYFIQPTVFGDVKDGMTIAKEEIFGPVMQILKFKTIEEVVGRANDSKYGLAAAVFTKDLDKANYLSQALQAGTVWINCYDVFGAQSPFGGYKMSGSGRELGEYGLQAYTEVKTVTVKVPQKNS

patient = conditions: human, in vivo
[7] = biological target: T3, mtALDH isolated from mouse macrophage RAW 264.7 (Mus musculus, UniProt P47738); type: biochemical
T3 construct: Mouse macrophage RAW 264.7 cells were homogenized in a 30 mM phosphate buffer; endogenous in cells; host or cells: mouse macrophage RAW 264.7 cells (endogenous enzyme purified over DEAE-cellulose, Q-sepharose, Butyl-Sepharose and hydroxyapatite)
T3 sequence (P47738 20-519): T2 sequence (P47738 20-519)

[8] = test system: anesthetized rabbits (arterial blood pressure); assay: Systemic hypotensive effects of GTN infusion in anesthetized rabbits; type: in vivo, New Zealand white rabbits; conditions: for effect on SNP or adenosine mediated hypotension: inhibitor (~5 mM) infused intravenously 20 minutes prior; for effect on hypotensive effects of GTN: inhibitor (~5 mM) infused intravenously 20 minutes prior to GTN
[9] = 1 mM, 20 minutes before 1 μM GTN, 5 minutes 37° C.

## O=[N+]([O-])OCC(CO[N+](=O)[O-])O[N+](=O)[O-] [GTN, glyceryl trinitrate]
[1]; mitochondria isolated from RAW 264.7 cells, 1 mM NADH/NADPH
  1,2-GDN generation from GTN: 0.29 nmol/h/mg
[1]; mitochondria-free supernatant
  1,2-GDN generation from GTN, residual activity: no residual activity
[2]; 0.5 h
  EC50: 3760 ± 2050 nM
[2]
  EC50: 22.6 ± 9.2 nM
[3]; GTN-tolerant rings compared to control
  decrease of reductase activity as measured by 1,2-GDN formation: 60.4%
mtALDH
  activity of mtALDH: inhibited
[4]; GTN tolerant rings
  cGMP accumulation from GTN treatment: abolished
[5]
  solubility in glycerol: sparingly soluble
[6]; purified enzyme
  1,3-GDN formation from GTN: below detection limits
[6]; purified enzyme, GTN 0.1 to 10 μM
  rates of 1,2-GDN formation versus GTN concentration: linear
[6]; purified enzyme, n=3
  product ratio of 1,2-GDN/NOx (nitrite plus nitrate): 0.73±0.05
  product ratio of 1,2-GDN/nitrite: 0.83±0.14
patient
  blood pressure after drop: 100 mm Hg

## N[C@@H](CCC(=O)N[C@@H](CS)C(=O)NCC(=O)O)C(=O)O [glutathione]
[6]
  restoration of catalytic activity lost upon removal of DTT by dialysis: not

## O=C(O)CCP(CCC(=O)O)CCC(=O)O [TCEP, tris(2-carboxyethylphosphine)]
[7]; 1 mM GTN, excess mtALDH, 37° C. 10-30 minutes, DTT 1 mM, DHLA 0.5 and 0.1 mM, TCEP 1 mM
  activation of mtALDH to cause conversion of GTN to 1,2-GDN (FIG. 1): best activators
patient
  clinical outcome: tolerance is reversed and angina resolves

## N[C@@H](CCC(=O)N[C@@H](CSN=O)C(=O)NCC(=O)O)C(=O)O [S-nitrosoglutathione]
patient
  clinical outcome: improvement of dyspnea and relief of angina; also recorded: relief of symptoms

## CCN(CC)C(=S)SSC(=S)N(CC)CC [antibuse]
patient; po
  clinical outcome: without headache or symptomatic hypotension

## acetaldehyde
[2]
  increase of GTN EC50 by inhibitor/competitive substrate: 4.4 fold
[3]; [9]
  1,2-GDN generation in the aorta rings, % of control activity: 52.5%
[4]
  effect on increase in cGMP produced by GTN: completely blocked
patient; iv
  clinical outcome: normalizing blood pressure

## CCCCCO[N+](=O)[O-] [amyl nitrate]
patient
  clinical outcome: improvement in dyspnea and symptoms of fatigue

## NCCCNCCSP(=O)(O)O [amifostine]
patient
  clinical outcome: resolution rectal pain
  improvement in FEV 1: 12%

## O=C(O)CCCC[C@@H]1CCSS1 (racemic) [lipoic acid]
[6]; purified enzyme
  dependence of 1,2-GDN formation by purified enzyme on added dithiol: could only catalyze 1,2-GDN formation when dithiol

## Cc1cnc(C(=O)NCCc2ccc(S(=O)(=O)NC(=O)NC3CCCCC3)cc2)cn1 [glipizide]
patient; iv
  clinical outcome: preservation of left ventricular function

## O=[N+]([O-])O[C@@H]1CO[C@H]2[C@@H]1OC[C@@H]2O [Imdur]
patient
  cross-tolerance with nitroglycerin: no cross-tolerance

## O=CC[N+](=O)[O-] [nitroacetaldehyde]
patient; 0.1 mg/kg
  clinical outcome: relief of dyspnea

## CCON=O [ethyl nitrite]
patient; iv
  clinical outcome: Anginal symptoms resolve
  systolic blood pressure after fall: 120 mm Hg

## O=C(O)CCCC[C@@H](S)CCS (racemic) [DHLA, dihydrolipoic acid]
[7]
  activation of mtALDH to cause conversion of GTN to 1,2-GDN (FIG. 1): best activators
patient; iv, 50 mg/kg
  clinical outcome: reverses tolerance and maintains mtALDH activity

## nitric oxide [NO solutions]
[2]
  effect of preincubation with the mtALDH inhibitors on relaxation induced by this vasodilator: did not attenuate relaxation

## [Cl-].[O-][N+](=S)CCCC[P+](c1ccccc1)(c1ccccc1)c1ccccc1 [thionitrobutyltriphenylphosphonium chloride]
patient; iv, 15 mg/kg
  clinical outcome: relief of symptoms and enhanced sensitivity to nitroglycerin

## O=NOC(CO)CO [2 glycerol mononitrite, 2-glycerol mononitrite]
patient
  angiography the following year: no progression of atherosclerosis
  clinical outcome: relief of symptoms

## OC(O)C(Cl)(Cl)Cl [chloral hydrate]
[2]
  increase of GTN EC50 by inhibitor/competitive substrate: 8.9 fold
[3]; [9]
  activity at 1000 µM: 27.6%
[4]
  effect on increase in cGMP produced by GTN: completely blocked
[8]
  effect on SNP or adenosine mediated hypotension: little or no effect
  effect on hypotensive effects of GTN: significantly attenuated
patient
  clinical outcome: resolution of symptoms; also recorded: without a decline in blood pressure; also recorded: without a fall in blood pressure; also recorded: improvement in wheezing and shortness of breath
patient; iv
  clinical outcome: left ventricular function is largely preserved
patient; po
  clinical outcome: blood pressure is restored
  systolic blood pressure after rise: 160 mm Hg

## O[C@H](CS)[C@H](O)CS (racemic) [DTT, dithiothreitol]
[7]
  activation of mtALDH to cause conversion of GTN to 1,2-GDN (FIG. 1): best activators
[6]; purified enzyme
  dependence of 1,2-GDN formation by purified enzyme on added dithiol: could only catalyze 1,2-GDN formation when dithiol
[6]
  restoration of catalytic activity lost upon removal of DTT by dialysis: fully restored

## N#CN [cyanamide]
[2]
  increase of GTN EC50 by inhibitor/competitive substrate: 4.9 fold
[3]; [9]
  activity at 1000 µM: 56.9%
[4]; 100 μM-10 nM
  reduction of the cGMP increase produced by GTN: 46%
[8]
  effect on SNP or adenosine mediated hypotension: little or no effect
  effect on hypotensive effects of GTN: significantly attenuated
